Literature values as cited in US20050152951A1, “Liquid, eye-instillable preparations comprising sodium hyaluronate” (priority 2001, published 2005).

Details: water retained by 1 gram of SH

In the case of Sodium hyaluronate [SH], the water retention is given as “up to 6 litres”.
